Results on one molecule are retold here after article PMC7703542 (Proceedings of the National Academy of Sciences of the …, 2020).

For the assay, the target named is PdF1 γCC (PdF1) (Paracoccus denitrificans, UniProt A1B8N8+A1B8P0). In words: single-molecule rotation assay, Mg-ADP inhibited pauses. Format: biochemical. The note with it: 1 µM ADP with 1 µM ATP, no ADP-trapping system, 0.1% LDAO.
PdF1 γCC (PdF1), sequence (A1B8P0 whole entry): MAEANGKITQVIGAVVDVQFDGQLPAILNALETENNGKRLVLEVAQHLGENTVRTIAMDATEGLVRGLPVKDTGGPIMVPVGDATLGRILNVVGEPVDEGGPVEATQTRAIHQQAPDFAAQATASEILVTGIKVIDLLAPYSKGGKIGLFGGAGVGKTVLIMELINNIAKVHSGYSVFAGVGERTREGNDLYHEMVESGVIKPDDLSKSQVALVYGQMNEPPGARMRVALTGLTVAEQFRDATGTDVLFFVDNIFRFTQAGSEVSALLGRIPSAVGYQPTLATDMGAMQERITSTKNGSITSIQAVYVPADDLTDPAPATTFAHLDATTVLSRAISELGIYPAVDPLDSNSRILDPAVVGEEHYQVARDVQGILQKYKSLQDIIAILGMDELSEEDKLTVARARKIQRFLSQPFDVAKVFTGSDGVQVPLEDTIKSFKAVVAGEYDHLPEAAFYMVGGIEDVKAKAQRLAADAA
PdF1 γCC (PdF1), sequence (A1B8N8 whole entry): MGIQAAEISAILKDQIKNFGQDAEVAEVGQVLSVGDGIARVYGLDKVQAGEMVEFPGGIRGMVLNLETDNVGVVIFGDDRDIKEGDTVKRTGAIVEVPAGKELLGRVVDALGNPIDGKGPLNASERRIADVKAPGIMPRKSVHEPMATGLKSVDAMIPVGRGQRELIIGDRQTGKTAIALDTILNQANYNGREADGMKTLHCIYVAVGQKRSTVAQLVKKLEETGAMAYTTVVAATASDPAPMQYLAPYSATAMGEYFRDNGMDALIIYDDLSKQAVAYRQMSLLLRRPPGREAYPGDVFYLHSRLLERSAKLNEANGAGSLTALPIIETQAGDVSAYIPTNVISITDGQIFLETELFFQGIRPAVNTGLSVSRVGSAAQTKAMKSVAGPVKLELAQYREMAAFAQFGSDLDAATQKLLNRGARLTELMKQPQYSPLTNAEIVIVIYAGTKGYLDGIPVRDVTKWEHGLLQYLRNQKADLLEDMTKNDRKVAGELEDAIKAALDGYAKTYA
PdF1 γCC (PdF1), sequence (A1B8N9 whole entry Q115C/D214C partner): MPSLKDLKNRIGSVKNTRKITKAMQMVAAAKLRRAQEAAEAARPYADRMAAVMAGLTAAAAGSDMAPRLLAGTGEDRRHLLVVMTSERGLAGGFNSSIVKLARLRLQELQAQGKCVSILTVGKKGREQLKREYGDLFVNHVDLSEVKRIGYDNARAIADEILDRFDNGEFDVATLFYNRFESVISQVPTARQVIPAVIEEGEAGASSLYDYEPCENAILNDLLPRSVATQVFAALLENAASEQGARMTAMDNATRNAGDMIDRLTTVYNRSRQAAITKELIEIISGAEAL
PdF1 γCC (PdF1), sequence (A1B8N7 whole entry partner): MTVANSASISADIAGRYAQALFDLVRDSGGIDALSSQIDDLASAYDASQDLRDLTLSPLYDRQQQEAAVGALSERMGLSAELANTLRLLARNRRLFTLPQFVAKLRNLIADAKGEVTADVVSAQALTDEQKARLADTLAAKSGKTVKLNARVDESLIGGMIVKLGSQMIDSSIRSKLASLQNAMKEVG
PdF1 γCC (PdF1), sequence (A1B8P1 whole entry partner): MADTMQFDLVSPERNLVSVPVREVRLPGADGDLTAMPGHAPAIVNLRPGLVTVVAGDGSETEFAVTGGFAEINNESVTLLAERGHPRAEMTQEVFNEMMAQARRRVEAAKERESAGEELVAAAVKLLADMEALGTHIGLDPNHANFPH

Take `Nc1ncnc2c1ncn2[C@@H]1O[C@H](COP(=O)(O)OP(=O)(O)O)[C@@H](O)[C@H]1O` [ADP]: the “single-molecule rotation assay, Mg-ADP inhibited pauses” value is reported as “supporting the conclusion that they are a result of Mg-ADP inhibition”.
